Measurements as given in US5434247A, “Peptides for inducing monocyte cytotoxicity in diagnostics” (Board of Regents, The University of Texas System, priority 1992, dated 1995).
“Also recorded” adds a separate entry of the source. Like-named read-outs stand apart in the source and are kept apart here. *1 amine or outer side, *2 acyl side, *3 side chain or, on linkers, in order; H or OH if unused. Where a SMILES comes first, the peptide text is derived from it. Bridges are numbered along the chain shown (N, C = ends). Roman numbers before positions name the chains, in order. Where no end group is shown, it is not given here. [ ]: non-standard residue; d: D form. Actinocin(9to1) = Cc1c2oc3c(C)ccc(C(=O)[*:1])c3nc-2c(C(=O)[*:2])c(N)c1=O; NMeV = CN[C@H](C(=O)O)C(C)C; Sar = CNCC(=O)O

Experiments:
FtF3 cells = test: Effects of metabolic inhibitors and tunicamycin on MCF production; type: cell-based, human; details: for biological activity of MCF after biosynthesis in the presence of the agent: tunicamycin 0, 1, 2.5 or 5.0 ug/ml; for effect on MCF production of PHA-stimulated FtF3 cells: cells incubated 4 h with inhibitor (0 to 100 ug/ml), washed, PHA 24 h; for effect on MCF production of nonstimulated (non-PHA treated) cells: puromycin at doses of 10-50 ug/ml
Experimental: (§1) FIG. 2. FtF3 cells were incubated 4 h with various doses of actinomycin D. Cells were washed and stimulated with PHA for 24 h before harvesting supernatants by centrifugation, extensive dialysis, and bioassay.( ) One set of each dose of inhibitor-treated cells was labelled with ^3 H-uridine, stimulated, lysed and harvested 24 h later, and counted by liquid scintillation.(.quadrature.) Viability of FtF3 at 24 h was greater than 80% at all doses tested.
as §1, with “3.” for “2.”, “cycloheximide.” for “actinomycin D.”, “3 H-amino acids,” for “^3 H-uridine,”, “TCA-precipitated” for “lysed and harvested”
FIG. 4. FtF3 cells were incubated 4 h with various doses of puromycin. Cells were washed and resuspended either with ( ) or without (.quadrature.) PHA, and incubated 24 h before harvesting supernatants by centrifugation, extensive dialysis, and bioassay. Viability of FtF3 at 24 h was greater than 80% at all doses tested.
Urea treatment was accomplished by adding 3 grams of solid urea to 10 ml MCF (28.5 U/ml) (5M urea final). Extraction of MCF with butanol-diisopropyl ether was performed. FtF3 cells were cultured with 0, 1, 2.5 or 5.0 ug/ml tunicamycin. […] MCF supernatants were extracted with butanol-diisopropyl ether; the aqueous phase contained 36.7% less MCF than the control preparation.
FtF3 cells at a concentration of 1×10^6 /ml in RPMI 1640/10% FCS were incubated 4 hours with either actinomycin D, cycloheximide, or puromycin (all at 0 to 100 ug/ml, Sigma). Tests for viability after treatment were performed by trypan blue exclusion and supernatants were collected by centrifugation. In a second set of experiments FtF3 cells at the same concentration but using 0.1% human serum were incubated for 5 hours with either cycloheximide or puromycin. Uptake experiments were performed by adjusting FtF3 cells to 1×10^6 /ml in media after treatment with inhibitor, and adding either 5,6-^3 H-uridine (ICN Radiochemicals, Irvine, Calif., USA, […]) to actinomycin D treated cells or ^3 H L-amino acid mixture (25.5 mci/mg) to cycloheximide-treated cells at 1 uCi to 1×10^5 cells. Cells were subsequently lysed and counted by liquid scintillation.

human monocytes / K562 = test: Human monocyte cytotoxicity assay (MCF assay), 111In-Ox labeled K562 targets; type: cell-based; details: for monocyte cytotoxicity inducing activity (in words) / concentration at which the peptide activates human blood monocytes for cytotoxicity: K562 target; for concentration at which the peptide activates human blood monocytes for cytotoxicity: purified peptide, monocytes of eight human donors
Experimental: FIG. 1. Hybrid cells were adjusted to 1×10^6 /ml and stimulated with 8 ug/ml PHA(+). […] to control (-) cultures, and both supernatants harvested by centrifugation. Monocyte cytotoxicity was measured as described herein with the exception that the monocyte monolayer was incubated overnight to allow for decay of NK cell activity. The monolayer was incubated for a second 24 hr period with dilutions of MCF containing supernatants. Dilutions represented are 1/4 in a total test volume of 0.2 ml. […] Microtiter plates were centrifuged 16 hrs later, and supernatants collected and counted. % specific release was calculated as described herein.
Only healthy volunteer donors were used. All volunteer donors signed an informed consent, and the protocol was approved by the Committee for the Protection of Human Subjects, University of Texas Health Science Center. Mononuclear cells were prepared by centrifugation over Ficoll/Hypaque. […] The monolayer was incubated overnight to allow for decay of residual natural killer activity before addition of lymphokine preparations on day 2.
The effector to target ratio was 30:1. […] After 18 hrs incubation of monocyte monolayer with target, the plates were centrifuged and supernatant was removed and cpms were counted in a Beckman Biogamma 2000. Specific release was calculated as described by Wiltrout, supra. […] Other tumor targets used were HL-60, L5178Y and TU5 (Table V).

[1] = Enzyme treatment of MCF supernatants; type: physicochemical; details: in contrast to MCF
Experimental: In order to treat MCF supernatants with enzymes, 10 ml of the supernatant (28.5 units/ml) were treated with 1 mg/ml trypsin at pH 7.4, 1 mg/ml chymotrypsin at pH 7.4, 0.5 mg/ml DNase at pH 7.4, or 40 units/ml RNase at pH 5 for 1 hour at 25° C. […] The experiments were repeated using insolubilized enzymes to minimize the possibility that enzymes could be carried over into the bioassay and could explain the results.

[2] = all doses tested, trypan blue exclusion

OCCS [2-mercaptoethanol]
biological activity of MCF after biosynthesis in the presence of the agent (FtF3 cells): no significant change

Cc1c2oc3c(C)ccc(C(=O)N[C@@H]4C(=O)N[C@H](C(C)C)C(=O)N5CCC[C@H]5C(=O)N(C)CC(=O)N(C)[C@@H](C(C)C)C(=O)O[C@@H]4C)c3nc-2c(C(=O)N[C@@H]2C(=O)N[C@H](C(C)C)C(=O)N3CCC[C@H]3C(=O)N(C)CC(=O)N(C)[C@@H](C(C)C)C(=O)O[C@@H]2C)c(N)c1=O [actinomycin D] (I: T[dV]P[Sar][NMeV] / II: T[dV]P[Sar][NMeV]; ester I:1-I:C, II:1-II:C; linker I:N-II:N via Actinocin(9to1))
Viability of FtF3 at 24 h (FtF3 cells; [2]): greater than 80%
effect on MCF production of PHA-stimulated FtF3 cells (FtF3 cells): totally suppressed
effect on MCF production of nonstimulated (non-PHA treated) cells (FtF3 cells): no effect

C[C@@H]1C[C@@H]([C@H](O)CC2CC(=O)NC(=O)C2)C(=O)[C@@H](C)C1 [cycloheximide]
lectin-induced MCF production with inhibitor present for the entire incubation period (FtF3 cells): not suppressed
Viability of FtF3 at 24 h (FtF3 cells; [2]): greater than 80%
effect on MCF production of PHA-stimulated FtF3 cells (FtF3 cells): suppressed but did not abolish
effect on MCF production of nonstimulated (non-PHA treated) cells (FtF3 cells): only a slight stimulatory effect

COc1ccc(C[C@H](N)C(=O)N[C@H]2[C@@H](O)[C@H](n3cnc4c(N(C)C)ncnc43)O[C@@H]2CO)cc1 [puromycin]
Viability of FtF3 at 24 h (FtF3 cells): greater than 80%
lectin-induced MCF production with inhibitor present for the entire incubation period (FtF3 cells): suppressive in a dose-dependent manner
effect on MCF production of PHA-stimulated FtF3 cells (FtF3 cells): suppressed but did not totally abolish
effect on MCF production of nonstimulated (non-PHA treated) cells (FtF3 cells): appeared to stimulate

GAAVLEDSQ [MJ-2]
monocyte cytotoxicity inducing activity (in words) (human monocytes / K562): exhibits the same high level activity as the intact protein of 29kD; also recorded: capable of activating human blood monocytes for tumor cytotoxicity; also recorded: to a similar extent as the intact protein of 29kD
concentration at which the peptide activates human blood monocytes for cytotoxicity (human monocytes / K562): approximately 10^-9 M

GAAVLENSQ [MJ-1]
monocyte cytotoxicity inducing activity (in words) (human monocytes / K562): capable of inducing human monocyte cytotoxicity; also recorded: found to have biological MCF activity
decrease in the biological activity of the peptide by the substitution, versus MJ-2 (human monocytes / K562; parallel assays, same human donors): ~3 log fold
concentration at which the peptide activates human blood monocytes for cytotoxicity (human monocytes / K562): 10^-6 M

GM-CSF: recombinant GM-CSF [reference compound]
% specific lysis (human monocytes / K562; cytokine added at 50 U/ml): -2.5 ± 15.9%
% specific lysis (human monocytes / K562; cytokine added at 100 U/ml): 5.7 ± 3.1%
% specific lysis (human monocytes / K562; cytokine added at 200 U/ml): -0.6 ± 4.9%

Gly Ala Ala Val Leu (GAAVL; printed: Gly Ala Ala Val Leu) [MJ-3, truncated five-mer, native 5 N-terminal amino acids of P29]
monocyte cytotoxicity inducing activity (in words) (human monocytes / K562): not determined to be above the background for the assay
monocyte cytotoxicity inducing activity (in words) (human monocytes / K562; listed as MJ3): did not reliably exhibit biological activity
specific release of label (human monocytes / K562; one experiment, input of 10^2 mg of protein): 25%

IFN-α [reference compound]
% specific lysis (human monocytes / K562; cytokine added at 1 U/ml): 4.5 ± 3.0%
% specific lysis (human monocytes / K562; cytokine added at 10 U/ml): -5.4 ± 9.2%
% specific lysis (human monocytes / K562; cytokine added at 100 U/ml): -2.1 ± 12.4%
% specific lysis (human monocytes / K562; cytokine added at 1000 U/ml): -8.9 ± 8.8%

Leu Glu Asp Ser Gln (LEDSQ) [MJ-5]
monocyte cytotoxicity inducing activity (in words) (human monocytes / K562): critical for biological activity

rIL1β: recombinant IL 1 beta (Cistron Biotechnology) [reference compound]
% specific lysis (human monocytes / K562; cytokine added at 0.1 U/ml): -8.7 ± 2.8%
% specific lysis (human monocytes / K562; cytokine added at 1 U/ml): -4.9 ± 4.6%
% specific lysis (human monocytes / K562; cytokine added at 10 U/ml): -1.8 ± 9.6%

tunicamycin
biological activity of MCF after biosynthesis in the presence of the agent (FtF3 cells): no significant change

B1: m-CSF: purified m-CSF (protein, UniProt P09603 33-554, looked up)
Macrophage colony-stimulating …: EEVSEYCSHMIGSGHLQSLQRLIDSQMETSCQITFEFVDQEQLKDPVCYLKKAFLLVQDIMEDTMRFRDNTPNAIAIVQLQELSLRLKSCFTKDYEEHDKACVRTFYETPLQLLEKVKNVFNETKNLLDKDWNIFSKNCNNSFAECSSQDVVTKPDCNCLYPKAIPSSDPASVSPHQPLAPSMAPVAGLTWEDSEGTEGSSLLPGEQPLHTVDPGSAKQRPPRSTCQSFEPPETPVVKDSTIGGSPQPRPSVGAFNPGMEDILDSAMGTNWVPEEASGEASEIPVPQGTELSPSRPGGGSMQTEPARPSNFLSASSPLPASAKGQQPADVTGTALPRVGPVRPTGQDWNHTPQKTDHPSALLRDPPEPGSPRISSLRPQGLSNPSTLSAQPQLSRSHSSGSVLPLGELEGRRSTRDRRSPAEPEGGPASEGAARPLPRFNSVPLTDTGHERQSEGSFSPQLQESVFHLLVPSVILVLLAVGGLLFYRWRRRSHQEPQRADSPLEQPEGSPLTQDDRQVELPV
% specific lysis (human monocytes / K562; cytokine added at 17.3 U/ml): 26.0 ± 6.5%
% specific lysis (human monocytes / K562; cytokine added at 173 U/ml): 14.5 ± 4.6%
% specific lysis (human monocytes / K562; cytokine added at 1730 U/ml): -3.9 ± 4.7%

B2: eIL1α: recombinant IL 1 alpha (Cistron Biotechnology) (protein, UniProt P01583 113-271, looked up)
Interleukin-1 alpha: SAPFSFLSNVKYNFMRIIKYEFILNDALNQSIIRANDQYLTAAALHNLDEAVKFDMGAYKSSKDDAKITVILRISKTQLYVTAQDEDQPVLLKEMPEIPKTITGSETNLLFFWETHGTKNYFTSVAHPNLFIATKQDYWVCLAGGPPSITDFQILENQA
% specific lysis (human monocytes / K562; cytokine added at 0.1 U/ml): -4.1 ± 4.1%
% specific lysis (human monocytes / K562; cytokine added at 1 U/ml): -3.6 ± 5.6%
% specific lysis (human monocytes / K562; cytokine added at 10 U/ml): -0.7 ± 7.6%

B3: IFN-γ: human gamma interferon (protein, UniProt P01579 24-161, looked up)
Interferon gamma: QDPYVKEAENLKKYFNAGHSDVADNGTLFLGILKNWKEESDRKIMQSQIVSFYFKLFKNFKDDQSIQKSVETIKEDMNVKFFNSNKKKRDDFEKLTNYSVTDLNVQRKAIHELIQVMAELSPAAKTGKRKRSQMLFRG
monocyte cytotoxicity inducing activity (in words) (human monocytes / K562): only slight activity
increase in specific lysis (human monocytes / K562; amounts up to 1000 U/ml final concentration): 6.2%
% specific lysis (human monocytes / K562; cytokine added at 10 U/ml): -3.5 ± 1.1%
% specific lysis (human monocytes / K562; cytokine added at 100 U/ml): 3.4 ± 3.2%
% specific lysis (human monocytes / K562; cytokine added at 1000 U/ml): 6.2 ± 4.4%
effect of trypsin [1]: inactivated
